In patent US20060183676A1, “Treatment of mycobacterium tuberculosis with antisense oligonucleotides” (priority 2001, published 2006):
Values after ≈ are worked out from the molar mass of the structure shown. Like-named read-outs stand apart in the source and are kept apart here. In the oligonucleotide strings, read from the 5' end, every base follows the letter of its sugar. An asterisk marks phosphorothioate; unmarked linkages are phosphodiester. Other units and linkages are bracketed, terminal groups are in braces. A string of capitals states the bases alone. Bridge positions count the residues as written; N and C are the ends. Square brackets hold non-standard residues; d marks the D form. Peptide text beside a SMILES is read from it. {FL} = fluorescein label; Dab = NCC[C@H](N)C(=O)O; d = 2'-deoxy (DNA); m = 2'-O-methyl

What was measured:
[1] = tested on: M. tuberculosis Erdman strain; format: cell-based
[2] = tested on: M. tuberculosis Erdman strain; format: cell-based; conditions: 6 weeks, O.D.; for inhibition of M. tuberculosis in the presence of antibiotic (in words): 10 μM plus ethambutol 5 μg/ml; for M. tuberculosis growth in the absence of antibiotic (in words): 10 μM
M. tuberculosis = format: cell-based; conditions: log reduction in CFU vs untreated control or MM-PS-ODN cultures; 10 μM, added once at start
M. tuberculosis Erdman [3] = conditions: Harth et al. 1999, cited from earlier work
[4] = tested on: M. tuberculosis Erdman glutamine synthetase; conditions: 20 μM; Harth et al. 1999; cited from earlier work
[5] = tested on: poly-L-glutamate/glutamine in the cell wall of M. tuberculosis; conditions: 20 μM; Harth et al. 1999; cited from earlier work
M. tuberculosis Erdman [6] = format: cell-based
M. tuberculosis Erdman [7] = experiment: microbe, parasite or virus in culture; conditions: Mycobacterium tuberculosis
M. smegmatis 1-2c [8] = experiment: microbe, parasite or virus in culture; conditions: Mycolicibacterium smegmatis, 12C
M. smegmatis 1-2c [9] = tested on: M. smegmatis 1-2c
M. tuberculosis Erdman [10] = tested on: M. tuberculosis Erdman

5-GAACGCCGGGGTGTTGATGTCCCAGCCG (SEQ ID NO: 14) [ML10]
inhibition of M. tuberculosis growth in the presence of ethambutol, added only once ([1]; 10 μM plus ethambutol 5 μg/ml, 9 weeks): slightly enhanced the inhibition
M. tuberculosis growth relative to control, added only once at the start ([1]; 10 μM, no antibiotic, 9 weeks, O.D.): slightly inhibited
M. tuberculosis growth relative to control, added weekly for 9 weeks ([1]; 10 μM, no antibiotic, O.D.): inhibited

5′-CACCTTCGCCACGATTGGAGCCCTCCA (SEQ ID NO: 13) (phosphorothioate, further chemistry not given here; listed as Mycobacterium tuberculosis) [Val 41, PS-ODN against nucleotides −15 to 12 of the groES gene]
inhibition of M. tuberculosis in the presence of antibiotic (in words) [2]: enhanced the inhibition
M. tuberculosis growth in the absence of antibiotic (in words) [2]: did not inhibit

5′-CCATGTCTTCACCGCTTCATCCTG (SEQ ID NO: 10) [Val 26]
inhibition of M. tuberculosis in the presence of antibiotic (in words) [2]: enhanced the inhibition
M. tuberculosis growth in the absence of antibiotic (in words) [2]: did not inhibit

5′-CGCTTCATCCTGCCGTGTCGG (SEQ ID NO: 8) [Val 24]
inhibition of M. tuberculosis in the presence of antibiotic (in words) [2]: enhanced the inhibition
M. tuberculosis growth in the absence of antibiotic (in words) [2]: did not inhibit

5′-TGCCGCAGCCACGGCGACGGCCGTGGT (SEQ ID NO: 11) [Val 33]
inhibition of M. tuberculosis in the presence of antibiotic (in words) [2]: enhanced the inhibition
M. tuberculosis growth in the absence of antibiotic (in words) [2]: inhibited

5′-TGCCGCAGCCACGGCGACGGCCGTGGTGTCCGAACC (SEQ ID NO: 12) [Val 34]
inhibition of M. tuberculosis in the presence of antibiotic (in words) [2]: enhanced the inhibition
M. tuberculosis growth in the absence of antibiotic (in words) [2]: inhibited

5′-TGGCCATGTCTTCACCGCTTCATCCTG (SEQ ID NO: 9) [Val 25]
M. tuberculosis growth in the absence of antibiotic (in words) [2]: did not inhibit

5′-TGGGGCTGGCCATGTCTTCAC-3′ (SEQ ID NO: 7) [Val 23]
inhibition of M. tuberculosis in the presence of antibiotic (in words) [2]: enhanced the inhibition
M. tuberculosis growth in the absence of antibiotic (in words) [2]: inhibited

5′>2′OMeACGAAC-CCTGTCAACAAG-2′OMeCTGCAT (antisense ACGAACCCTGTCAACAAGCTGCAT; sugars from the 5' end m6 d12 m6, all phosphorothioate, T or U not given here) [fbpA (SEQ ID NO: 26), antisense PS-ODN against fbpA with O-methyl groups at the 5′ and 3′ ends]
log Reduction (M. tuberculosis): 0.4 log

5′>2′OMeATTCTT-TCGGCTCACGTC-2′OMeTGTCAT [fbpB (SEQ ID NO: 25)]
log Reduction (M. tuberculosis): 0.4 log

5′>AACGAATTCCTTCTGTCGGTCCAT (dA*dA*dC*dG*dA*dA*dT*dT*dC*dC*dT*dT*dC*dT*dG*dT*dC*dG*dG*dT*dC*dC*dA*dT; antisense) [glnA2]
log Reduction (M. tuberculosis): 0.05-0.1 log

5′>AACGGGAGTGACACGTGATTCCAT (dA*dA*dC*dG*dG*dG*dA*dG*dT*dG*dA*dC*dA*dC*dG*dT*dG*dA*dT*dT*dC*dC*dA*dT) [mas]
log Reduction (M. tuberculosis): 0.35 log

5′>AATCCGGCTGAAAGCCGTTCGCATCAC (dA*dA*dT*dC*dC*dG*dG*dC*dT*dG*dA*dA*dA*dG*dC*dC*dG*dT*dT*dC*dG*dC*dA*dT*dC*dA*dC; antisense) [ppsB]
log Reduction (M. tuberculosis): 0 log

5′>AATGATTTCTTCCTGAGTGACAGGCAC (dA*dA*dT*dG*dA*dT*dT*dT*dC*dT*dT*dC*dC*dT*dG*dA*dG*dT*dG*dA*dC*dA*dG*dG*dC*dA*dC; antisense) [acpM]
log Reduction (M. tuberculosis): 0 log

5′>ACGAACCCTGTCAACAAGCTGCAT-GGGGG (antisense dA*dC*dG*dA*dA*dC*dC*dC*dT*dG*dT*dC*dA*dA*dC*dA*dA*dG*dC*dT*dG*dC*dA*dT*dG*dG*dG*dG*dG) [fbpA (SEQ ID NO: 27), antisense PS-ODN against fbpA with five Gs attached to the 3′ end]
log Reduction (M. tuberculosis): 0.8 log

5′>CAAGATGGACACCGTCACCGCTAC (dC*dA*dA*dG*dA*dT*dG*dG*dA*dC*dA*dC*dC*dG*dT*dC*dA*dC*dC*dG*dC*dT*dA*dC; antisense) [murX]
log Reduction (M. tuberculosis): 0 log

5′>CACATCCAGCGACTTGGCCAGCTC (dC*dA*dC*dA*dT*dC*dC*dA*dG*dC*dG*dA*dC*dT*dT*dG*dG*dC*dC*dA*dG*dC*dT*dC; antisense) [rfbE]
log Reduction (M. tuberculosis): 0 log

5′>CGCCGCGCGCTCCGCCAGACTTGTCAT (dC*dG*dC*dC*dG*dC*dG*dC*dG*dC*dT*dC*dC*dG*dC*dC*dA*dG*dA*dC*dT*dT*dG*dT*dC*dA*dT; antisense) [ppsD]
log Reduction (M. tuberculosis): 0 log

5′>CGCGATCGCGTTCTCGGGGATGCTCAC (dC*dG*dC*dG*dA*dT*dC*dG*dC*dG*dT*dT*dC*dT*dC*dG*dG*dG*dG*dA*dT*dG*dC*dT*dC*dA*dC; antisense) [ppsE]
log Reduction (M. tuberculosis): 0 log

5′>CGGCCCTGCATGTCGGTGAACGCG (dC*dG*dG*dC*dC*dC*dT*dG*dC*dA*dT*dG*dT*dC*dG*dG*dT*dG*dA*dA*dC*dG*dC*dG; antisense) [glnA4]
log Reduction (M. tuberculosis): 0 log

5′>FL-GCCGGGGTGTTGATATCCCAGCCG (5' {FL}, sugars by position and backbone not given here) [fbpB (SEQ ID NO: 24), antisense PS-ODN against fbpB (30 kDa protein gene) with fluorescein attached to the 5′ end]
log Reduction (M. tuberculosis): 0.6 log

5′>GACATTCTCCCAGAACCGTTTCAC (chemistry not given here) [air, antisense PS-ODN against the alr gene (alanine racemase) transcript]
log Reduction (M. tuberculosis): 0.2 log

5′>GCACGGTCTTGGCCTGGGTGAGTC (dG*dC*dA*dC*dG*dG*dT*dC*dT*dT*dG*dG*dC*dC*dT*dG*dG*dG*dT*dG*dA*dG*dT*dC; antisense) [glnA3]
log Reduction (M. tuberculosis): 0 log

5′>GCCATTAGCGGTGGAAGGCTGACTCAC (dG*dC*dC*dA*dT*dT*dA*dG*dC*dG*dG*dT*dG*dG*dA*dA*dG*dG*dC*dT*dG*dA*dC*dT*dC*dA*dC; antisense) [kasA]
log Reduction (M. tuberculosis): 0 log

5′>GCTCTGAAACGTGCCGGTCTGAAC (dG*dC*dT*dC*dT*dG*dA*dA*dA*dC*dG*dT*dG*dC*dC*dG*dG*dT*dC*dT*dG*dA*dA*dC; antisense) [fadD26]
log Reduction (M. tuberculosis): 0.65 log

5′>GGACACCTCGAGACCGTACTGCAC (dG*dG*dA*dC*dA*dC*dC*dT*dC*dG*dA*dG*dA*dC*dC*dG*dT*dA*dC*dT*dG*dC*dA*dC) [rfe]
log Reduction (M. tuberculosis): 0.25 log

5′>TC(c->g)GCGATCTGGTGTCGCTGCGGTCAT (phosphorothioate, 5' TC(c->g) prefix, further chemistry not given here) [ppsC]
log Reduction (M. tuberculosis): 0 log

5′>TTCACCACTGATGCTTCCCGTCAT (dT*dT*dC*dA*dC*dC*dA*dC*dT*dG*dA*dT*dG*dC*dT*dT*dC*dC*dC*dG*dT*dC*dA*dT; antisense) [ppsA]
log Reduction (M. tuberculosis): 0 log

5′>TTTGCCGTCCAGCAGTCCTGTCAT (chemistry not given here) [lnhA]
log Reduction (M. tuberculosis): 0.05 log

CS(=N)(=O)CC[C@H](N)C(=O)O (stereo partly drawn) [L-methionine-S-sulfoximine]
inhibition of bacterial growth (M. tuberculosis Erdman [3]; 2 μM): 1.5-2 log units
reduction of bacterial growth (M. tuberculosis Erdman [3]; 20 μM): ≥ 2.5 log units
reduction of extracellular glutamine synthetase activity [4]: 80%
reduction of the amount of the poly-L-glutamate/glutamine cell wall structure [5]: 93%

NCC[C@H](O)C(=O)N[C@@H]1C[C@H](N)[C@@H](O[C@H]2O[C@H](CN)[C@@H](O)[C@H](O)[C@H]2O)[C@H](O)[C@H]1O[C@H]1O[C@H](CO)[C@@H](O)[C@H](N)[C@H]1O [amikacin, reference compound]
antibacterial effect of free antibiotic (in words) (M. tuberculosis Erdman [6]; 1 μM): bacteriostatic
antibacterial effect of free antibiotic (in words) (M. tuberculosis Erdman [6]; 5.8 μg per ml (10 μM)): strongly bactericidal

CC[C@@H](CO)NCCN[C@@H](CC)CO [ethambutol]
MIC (M. tuberculosis Erdman [7]): ~5 µg/mL (≈ 24.5 µM)
MIC (M. smegmatis 1-2c [8]): ~10 µg/mL (≈ 48.9 µM)

CC(C)C[C@@H]1NC(=O)[C@@H](Cc2ccccc2)NC(=O)[C@H](CCN)NC(=O)[C@@H](NC(=O)[C@H](CCN)NC(=O)[C@@H](N)[C@@H](C)O)CCNC(=O)[C@H]([C@@H](C)O)NC(=O)[C@H](CCN)NC(=O)[C@H](CCN)NC1=O [polymyxin B nonapeptide] (H-T[Dab][Dab][Dab][dF]L[Dab][Dab]T; lactam 3-C; N-terminus assumed)
MIC (M. smegmatis 1-2c [9]): ~5 µg/mL (≈ 5.19 µM)
MIC (M. tuberculosis Erdman [10]): ~5 µg/mL (≈ 5.19 µM)
